In PubChem BioAssay (NCI):
Where “and” joins values, the source holds several entries; their conditions need not be identical. Equal values may be shown once.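 1) Cells in 96-well plates. 2) Compound, 48 h, 5 concentrations. 3) Linear interpolation between surrounding doses. 4) Unreached endpoint = highest concentration. The concentration for 50% growth inhibition is given as GI50. The concentration for full growth arrest is given as TGI.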

What was measured:
Assay in all cases: NCI anticancer screen, dose series, 48 h
[1] = tested on: DLD-1 colon
[2] = tested on: DMS 114 small cell lung
[3] = tested on: DMS 273 small cell lung
[4] = tested on: HOP-18 NSCLC
[5] = tested on: LXFL 529 NSCLC
[6] = tested on: M19-MEL melanoma
[7] = tested on: RXF-631 renal

Row | SMILES | GI50 [1] | TGI [1] [µM] | TGI [2] | TGI [3] | TGI [4] [µM] | TGI [5] [µM] | TGI [6] [µM] | TGI [7] [µM]
1 | COc1cc(CNc2ccc(SC)cc2)cc(OC)c1OC | 12 µM and 5.85 µM | > 100 | 20.9 µM and 8.02 µM | 28.1 µM and > 36.7 µM | > 100 | > 100 |  | 
2 | CC(=O)OC1CC2C(C)(C)OC(=O)CC(OC(C)=O)[C@]2(C)C2CCC3(C)C(=CCC3[C@H]3COC(=O)C3)[C@]12C (some centres undefined) |  | > 100 | > 100 µM | > 100 µM |  | > 100 | > 100 | 
3 | NC1=NS(=O)(=O)Nc2nc(-c3ccc([N+](=O)[O-])cc3)[nH]c21 |  | > 100 | > 100 µM | > 100 µM | > 100 | > 100 | > 100 | 
4 | CN1NC(=Nc2ccccc2)Sc2c1cnn(-c1ccccc1)c2=O |  | > 100 | > 100 µM | > 100 µM | > 100 | > 100 | > 100 | 
5 | CC(C)C(=O)/C=C/c1ccc(Br)cc1 |  | 20.3 | 37 µM | 28.7 µM |  | 33.8 | 28.9 | 
6 | COC(=O)OCC1OC(N2C(=O)NC(=O)C(Br)C2N=[N+]=[N-])CC1OC(=O)OC (centres undefined) |  | > 100 | > 100 µM | > 100 µM |  | > 100 | > 100 | 
7 | O=C(Cc1ccccc1)NN1C(=O)C(Cl)C1c1ccc(O)cc1 (centres undefined) |  | > 100 | > 100 µM | > 100 µM | > 100 |  | > 100 | 
8 | O=C1Nc2c(ccc(Cl)c2I)C1=O |  | 35.3 | 30.1 µM | 37 µM |  | 27.5 | 24.1 | 
9 | O=C1c2ccccc2CCCCCCCCCCC12OCCCO2 |  | > 100 | 37.5 µM | > 100 µM | > 100 | > 100 | > 100 | 
10 | CC(=O)C1=C(C)NC2C=CC=CN12 (centres undefined) |  | > 100 | > 100 µM | > 100 µM | > 100 |  | > 100 | 
11 | O=C1c2ccccc2C(=O)N1Cc1ccccc1-c1c2nc(c(-c3ccccc3CN3C(=O)c4ccccc4C3=O)c3ccc([nH]3)c(-c3ccccc3CN3C(=O)c4ccccc4C3=O)c3nc(c(-c4ccccc4CN4C(=O)c5ccccc5C4=O)c4ccc1[nH]4)C=C3)C=C2 |  | > 100 | > 100 µM | > 100 µM | > 100 | > 100 | > 100 | 
12 | NC1=NS(=O)(=O)Nc2nc(-c3ccc(Cl)cc3)c(-c3ccc(Cl)cc3)nc21 |  | > 100 | > 100 µM | > 100 µM | > 100 | > 100 | > 100 | > 100
13 | CCCCCCCCCCCCCCCCCC(=O)O[C@H](COC(=O)CCCCCCCCCCC)COC(=O)CCCCCCCCCCCCCCC |  | > 100 | > 100 µM | > 100 µM | > 100 | > 100 | > 100 | > 100
14 | COC(=O)N/N=C(\C)C(CN1CCCCC1)C(C1=C(O)c2ccccc2OC1)c1ccccc1 (centres undefined) |  | > 100 | > 100 µM | > 100 µM | > 100 | > 100 | > 100 | 
15 | COc1cc(C)c2c(c1C)OC(=O)c1c(C)c(Cl)c(O)c(C=O)c1O2 |  | 59 |  | 37.2 µM |  | 43.3 |  | 57.1
16 | Cc1cc(C)[n+](CCOc2ccc(/C(=C(/Cl)c3ccccc3)c3ccccc3)cc2)c(C)c1 |  | 15.8 | 5.43 µM | 1.48 µM |  | 1.82 | 1.84 | 
17 | O=C(CSc1nnc(Cc2ccccc2)o1)Nc1ccc([N+](=O)[O-])cc1 |  | > 100 | 72.2 µM | > 100 µM |  | > 100 | > 100 | 
18 | CCCC(C)NC1=C(NC(C)=O)C(=O)c2ccccc2C1=O (centres undefined) |  | > 100 |  | > 100 µM |  | > 100 | > 100 | 
19 | O=C1OC2(OC2c2ccccc2)c2ccccc21 (centres undefined) |  | > 100 | 11 µM | > 100 µM |  | > 100 | > 100 | 
20 | Oc1cc(C2OCCCO2)cc(O)c1O |  | > 100 | > 100 µM | > 100 µM | > 100 | > 100 | > 100 | > 100
21 | CC(=O)Nc1cc2c(s1)CCC1CC(=O)NN=C21 (centres undefined) |  |  | > 100 µM | > 100 µM |  | > 100 | > 100 | 
